Source: the NIST ThermoML archive (doi:10.1016/j.jct.2013.05.031)
Numbers after ± are expanded uncertainties.

Settings: for surface tension liquid-gas: Capillary rise; for viscosity / mass density: 101.33 kPa, Liquid; for viscosity: Capillary tube (Ostwald / Ubbelohde) method; for mass density: Pycnometric method

CCCCCCCCCCCC[N+](CC)(CC)CC.O=S(=O)([N-]S(=O)(=O)C(F)(F)F)C(F)(F)F
Settings	mass density [kg/m3]	surface tension liquid-gas [mN/m]	viscosity [mPa·s]
298 K	1191.1 ± 2	31.8 ± 0.5	311.8 ± 23
303 K	1187.1 ± 2	31.3 ± 0.5	227.6 ± 18
308 K	1183.1 ± 2	30.9 ± 0.5	167.7 ± 12
313 K	1179.4 ± 2	30.3 ± 0.5	137.8 ± 9.4
318 K	1175.7 ± 2	29.9 ± 0.5	98.82 ± 7.3
323 K	1171.6 ± 2	29.5 ± 0.5	78.71 ± 4.9
328 K	1167.9 ± 2	29.1 ± 0.5	62.52 ± 3.9
333 K	1164.2 ± 2	28.5 ± 0.5	49.82 ± 2.9
338 K	1160.7 ± 1.9	28.2 ± 0.5	41.48 ± 2.3
343 K	1157.2 ± 2	27.7 ± 0.5	34.69 ± 1.9
348 K	1153.3 ± 2	27.2 ± 0.5	29.44 ± 1.6
353 K	1149.5 ± 2	26.8 ± 0.5	25.13 ± 1.3
358 K	1145.5 ± 2	26.4 ± 0.5	21.3 ± 1.1
363 K	1141.4 ± 2	26 ± 0.5	18.31 ± 0.9
368 K	1137.6 ± 2	25.5 ± 0.5	16.51 ± 0.8
373 K	1133.7 ± 2	25.2 ± 0.5	14.2 ± 0.74

CCCCCC[N+](CC)(CC)CC.O=S(=O)([N-]S(=O)(=O)C(F)(F)F)C(F)(F)F [triethylhexylammonium bis((trifluoromethyl)sulfonyl)imide]
Settings	mass density [kg/m3]	surface tension liquid-gas [mN/m]	viscosity [mPa·s]
298 K	1291.4 ± 2.2	34.1 ± 0.5	186.6 ± 13
303 K	1287.4 ± 2.2	33.7 ± 0.5	137.9 ± 10
308 K	1283.4 ± 2.1	33.3 ± 0.5	105.1 ± 7.2
313 K	1279.5 ± 2.2	32.9 ± 0.5	81.64 ± 5.2
318 K	1275.2 ± 2.2	32.5 ± 0.5	65.32 ± 4
323 K	1271.3 ± 2.2	32.1 ± 0.5	52.03 ± 3.1
328 K	1267.1 ± 2.2	31.7 ± 0.5	42.34 ± 2.4
333 K	1262.5 ± 2.2	31.3 ± 0.5	35.41 ± 2
338 K	1258.5 ± 2.2	30.9 ± 0.5	28.94 ± 1.6
343 K	1254.5 ± 2.1	30.5 ± 0.5	24.77 ± 1.3
348 K	1251.3 ± 2.1	30.1 ± 0.5	20.96 ± 1.1
353 K	1247.3 ± 2.2	29.7 ± 0.5	18.03 ± 0.91
358 K	1243.3 ± 2.2	29.3 ± 0.5	15.83 ± 0.78
363 K	1238.4 ± 2.2	28.9 ± 0.5	13.9 ± 0.68
368 K	1234.9 ± 2.1	28.5 ± 0.5	12.25 ± 0.58
373 K	1231.1 ± 2.1	28.2 ± 0.5	10.86 ± 0.53

CCCCCCCC[N+](CC)(CC)CC.O=S(=O)([N-]S(=O)(=O)C(F)(F)F)C(F)(F)F [triethyloctylammonium bis[(trifluoromethyl)sulfonyl]imide]
Settings	mass density [kg/m3]	surface tension liquid-gas [mN/m]	viscosity [mPa·s]
298 K	1251.2 ± 2.1	33.1 ± 0.5	221.4 ± 16
303 K	1247.2 ± 2.1	32.8 ± 0.5	163.9 ± 12
308 K	1242.9 ± 2.1	32.3 ± 0.5	124.7 ± 8.6
313 K	1239.4 ± 2.1	31.8 ± 0.5	96.76 ± 6.3
318 K	1235.2 ± 2.1	31.4 ± 0.5	76.47 ± 4.8
323 K	1231.3 ± 2.1	31 ± 0.5	60.52 ± 3.7
328 K	1227.5 ± 2.1	30.6 ± 0.5	48.63 ± 2.9
333 K	1223.2 ± 2.1	30.1 ± 0.5	39.85 ± 2.3
338 K	1219 ± 2	29.7 ± 0.5	33.2 ± 1.8
343 K	1216 ± 2	29.3 ± 0.5	28.23 ± 1.5
348 K	1212.9 ± 2.1	28.9 ± 0.5	23.8 ± 1.3
353 K	1207.8 ± 2.2	28.6 ± 0.5	20.36 ± 1
358 K	1203.5 ± 2.1	28.1 ± 0.5	17.83 ± 0.89
363 K	1200.2 ± 2.1	27.7 ± 0.5	15.55 ± 0.77
368 K	1196 ± 2.1	27.3 ± 0.5	13.5 ± 0.66
373 K	1192.3 ± 2.1	26.9 ± 0.5	12.05 ± 0.58

CCCCC[N+](CC)(CC)CC.O=S(=O)([N-]S(=O)(=O)C(F)(F)F)C(F)(F)F [triethylpentylammonium bis(trifluoromethylsulfonyl)imide]
Settings	mass density [kg/m3]	surface tension liquid-gas [mN/m]	viscosity [mPa·s]
298 K	1321.5 ± 2.2	35.7 ± 0.5	161.6 ± 11
303 K	1317.4 ± 2.2	35.4 ± 0.5	121.4 ± 8.7
308 K	1313.2 ± 2.2	35 ± 0.5	92.11 ± 6.3
313 K	1308.9 ± 2.2	34.7 ± 0.5	71.86 ± 4.6
318 K	1304.9 ± 2.2	34.3 ± 0.5	57.52 ± 3.5
323 K	1301 ± 2.2	34 ± 0.5	46.74 ± 2.8
328 K	1296.6 ± 2.2	33.6 ± 0.5	37.78 ± 2.2
333 K	1293.1 ± 2.2	33.3 ± 0.5	31.43 ± 1.7
338 K	1289.1 ± 2.2	32.9 ± 0.5	26.57 ± 1.4
343 K	1284.7 ± 2.2	32.6 ± 0.5	22.47 ± 1.2
348 K	1280.9 ± 2.2	32.2 ± 0.5	19.27 ± 0.99
353 K	1277.3 ± 2.2	31.8 ± 0.5	16.71 ± 0.82
358 K	1272.9 ± 2.3	31.5 ± 0.5	14.79 ± 0.73
363 K	1268.6 ± 2.2	31.1 ± 0.5	12.87 ± 0.63
368 K	1265.1 ± 2.2	30.7 ± 0.5	11.5 ± 0.55
373 K	1260.7 ± 2.3	30.4 ± 0.5	10.17 ± 0.49
